Common to all, as to format: cell-based, human
One data set concerns 293T-ASC-GFP-NLRP1. Conditions: for ASC-GFP speck formation, screen of cytotoxic chemicals: ANS 1 μM, LTM 1 μg/ml, STS 1 μM; for effect on ANS- and TNFα+DT-triggered NLRP1 activation: 293T-NLRP1-ASC-GFP reporter cells, BTZ 0.5 μM, MLN4924 0.25 μM.
Data set [1] concerns immortalized keratinocytes (N-TERT). The data set can be described thus: Pyroptosis / apoptosis in N-TERT keratinocytes (morphology, ASC-GFP, PI, Annexin V, immunoblot). Conditions: for morphological hallmarks of inflammasome activation and pyroptotic cell death: membrane ballooning, ASC-GFP specks, PI uptake. From the text:
(§1) The following antibodies were used in this study: cleaved PARP1 (Abclonal, #WH162766), Cleaved CASP3 (Abclonal, #WH154646), Full length GSDMD-FL (Abcam, #ab210070), IL1β p17 specific (CST, #83186S), CARD8 (Abcam, CARD8-NT: ab19485, CARD8-CT: ab241186), DPP9 (Abcam, ab226334), c-Myc (Santa Cruz Biotechnology, #sc-40), HA tag (Santa Cruz Biotechnology, #sc-805), GAPDH (Santa Cruz Biotechnology, #sc-47724), ASC (Adipogen, #AL-177), CASP1 (Santa Cruz Biotechnology, #sc-622), 11_1B (R&D systems, #AF-201), FLAG (SigmaAldrich, #F3165), NLRP1 (R&D systems, #AF6788), IL18 (Abcam ab207324), cleaved GSDMD-NT (Asp275) (Cell Signaling Technology, #36425), RPL31 (Abclonal, #WH162766), CASP7 (Abcam, ab255818), CASP8 (Abcam, ab32397), cleaved CASP3 (Cell Signaling Technology, #9664). All horseradish peroxidase (HRP)— conjugated secondary antibodies were purchased from Jackson Immunoresearch (goat anti-mouse IgG: 115-035-166; goat anti-rabbit IgG: 111-035-144; and donkey anti-goat IgG: 705-005-147). Blue-Native PAGE was carried out using the Native-PAGE system (ThermoFisher) with 10-20 μg of total lysate. For SDS-PAGE using whole cell lysates, cells were resuspended in tris-buffered saline 1% NP-40 with protease inhibitors (Thermo Scientific, #78430). Protein concentration was determined using the Bradford assay (Thermo Scientific, #23200) and […] of protein loaded, a part from cleaved GSDMD-NT visualisation where […] of protein was used. All primary antibodies were used at 250 ng/ml. Visualisation of ASC oligomerization was previously described (Robinson et al., 2020). For analysis of IL1β and IL-18 cleavage in the media by immunoblotting, samples were concentrated using filtered centrifugation (Merck, Amicon Ultra, #UFC5003BIK). Protein samples were run using immunoblotting, and then visualized using a ChemiDoc Imaging system (Bio-Rad). PhosTag SDS-PAGE was carried out using homemade 10% SDS-PAGE gel, with addition of Phos-tag Acrylamide (Wako Chemicals, AAL-107) to a final concentration of 30 μM and manganese chloride(II) (Sigma-Aldrich, #63535) to 60 μM.
N-TERT-ASC-GFP cells were seeded at a cell density of 3000 cells/well of a 96 black well plate (PerkinElmer, CellCarrier-96 Ultra, #6055300). The next morning cells were treated with chemicals for 6 h or treated in the evening for 24 h before staining. 1 hour before observing the cells on the microscope the cells were stained with 1 μg/ml dilution of propidium iodide (PI, Abcam #ab14083), 10 ng/ml dilution of Hoechst 33342 (Life Technologies, #H21492) or stained with Annexin V Alexa Flour 647 (Life technologies, #A23204) according to the manufacturer's protocol. Stained cells were then imaged on a high content screening microscope (Perkin Elmer Operetta CLS imaging system). Images were then stored and analyzed using the Harmony software (Version 6). Fluorescent and brightfield images acquired on the Operetta high content screening microscope were further analyzed using a scoring system to categorize the percentages of live, apoptotic and pyroptotic cells. For 3 fields of view per treatment the number of live cells per field was counted from the merge of the brightfield and ASC-GFP channels. Only cells which contained ASC-GFP throughout the cytoplasm and nucleus were classed as “live”. The number of pyroptotic cells was calculated using the merge of the brightfield and ASC-GFP channels. Only the cells with GFP specks were classed as “pyroptotic”. The number of apoptotic cells was calculated using the merge of the brightfield, ASC-GFP and Annexin V channels. Cells that were stained positive for Annexin V but without a GFP speck were classified as “apoptotic”. Images of ASC-GFP specks were acquired in 3 random fields in 4′,6-diaminidino-2-phenylindole (DAPI, 358 nm/461) and GFP (469 nm/525 nm) channels using the EVOS microscope (FL Auto M5000, #AM F5000) according to the manufacturer's protocol. […]

In data set [2] the test system is N-TERT cells. As to the kind of experiment: Secreted IL1β / inflammasome activation in N-TERT cells. Particulars: for effect on ANS- and TNFα+DT-triggered NLRP1 activation: N-TERTs, BTZ 0.5 μM, MLN4924 0.25 μM. Here is the method:
(§2) To measure secreted cytokine and chemokine levels a human IL1β enzyme linked immunosorbent assay (ELISA) kit (BD, #557953), human IL-18 ELISA kit (MBL, #7620) or an Immune Monitoring 65-Plex Human ProcartaPlex Panel (EPX650-10065-901) were used according to manufacturer's protocols. Further analysis of Luminex or ELISA profiling of samples was performed using heatmap and PCA analysis on Clustervis (biitdotcsdotutdotee/clustvis/) [Somani et al., Proceeding of SSIC (2019)].
as §1

The next data set concerns NLRP1-NT. The data set can be described thus: NLRP1 cleavage / NLRP1-NT level by immunoblot.
Source text: as §1

Data set [3] concerns N-TERT cells. The data set can be described thus: UVB triggered cell death and IL-1beta release in N-TERT cells. Here is the method:
For UVA and UVB irradiation experiments, cells were seeded 24 hours prior to irradiation, and washed once in phosphate buffered saline pH 7.4 before being exposed to indicated dose of irradiation using a BIO-SUN microprocessor controlled, cooled UV irradiation system (BIO-SUN, Vilber). After exposure, PBS was replaced by keratinocyte medium and cells were incubated for indicated time.
as §2

In the next data set the test system is NLRP1^DR. The data set can be described thus: NLRP1 PYD-DR1 / NLRP1^DR phosphorylation (GFP fusion, immunoblot, PhosTag SDS-PAGE) in N-TERT cells.
Source text: as §1
Cells were directly harvested using Laemmli buffer, lysed with an ultrasonicator, and loaded into the Phos-tag gel to run. Once the run was completed, the polyacrylamide gel was washed in transfer buffer with 10 mM EDTA twice, subsequently washed without EDTA twice, blotted onto 0.45 μm PVDF membranes (Bio-rad), blocked with 3% milk, and incubated with primary and corresponding secondary antibodies.

In the case of `C/C(=C\[C@H](C)C(=O)C[C@H](O)CC1CC(=O)NC(=O)C1)[C@@H]1OC(=O)/C=C/CC/C=C/C=C\[C@@H]1C` [LTM, Lactimidomycin], the “ASC-GFP speck formation, screen of cytotoxic chemicals” value in the data set with 293T-ASC-GFP-NLRP1 is “identified two hits”. Also, in data set [1] (Annexin V staining and PI inclusion, immunoblot markers), the “mode of cell death (apoptosis / pyroptosis)” value was “caused both apoptosis and pyroptosis”. For the same molecule, the “morphological hallmarks of inflammasome activation and pyroptotic cell death” value (“morphological hallmarks” for short) in data set [1] is “rapidly induced the morphological hallmarks of inflammasome activation and pyroptotic cell death”. Further, the “fraction of pyroptotic cells” value in data set [1] (single cell level, compared with VbP) is recorded as “comparable to that induced by VbP”.
With `CC(C)C[C@H](NC(=O)[C@H](Cc1ccccc1)NC(=O)c1cnccn1)B(O)O` [bortezomib, [(1R)-3-methyl-1-[[(2S)-3-phenyl-2-(pyrazine-2-carbonylamino)propanoyl]amino]butyl]boronic acid], the “effect on ANS- and TNFα+DT-triggered NLRP1 activation” value in the data set with 293T-ASC-GFP-NLRP1 is “abrogated ANS- and TNFα+DT-triggered NLRP1 activation”; with N-TERT cells [2], “abrogated ANS- and TNFα+DT-triggered NLRP1 activation”. Further, the “effect on ribotoxin-triggered NLRP1-NT destabilization” value with NLRP1-NT was “could be blocked”.
`COC(=O)C[C@](O)(CCC(C)(C)O)C(=O)O[C@@H]1C(OC)=C[C@]23CCCN2CCc2cc4c(cc2[C@H]13)OCO4` [harringtonin, Harringtonine]: the “morphological hallmarks” value in data set [1] was “none of the inhibitors that block the ribosome at the pre-elongation stages, including harringtonin, blasticidin and G418 caused any pyroptosis”.
On to `NS(=O)(=O)OC[C@@H]1C[C@@H](n2ccc3c(N[C@H]4CCc5ccccc54)ncnc32)C[C@@H]1O` [MLN4924, ((1S,2S,4R)-4-(4-(((S)-2,3-dihydro-1H-inden-1-yl)amino)-7H-pyrrolo[2,3-d]pyrimidin-7-yl)-2-hydroxycyclopentyl)methyl sulfamate], for which the “effect on ANS- and TNFα+DT-triggered NLRP1 activation” value with 293T-ASC-GFP-NLRP1 is “abrogated ANS- and TNFα+DT-triggered NLRP1 activation”; in the data set on N-TERT cells [2], “abrogated ANS- and TNFα+DT-triggered NLRP1 activation”. In the data set with N-TERT cells [3], the “effect on UVB-dependent NLRP1 activation” value is given as “abrogated”. In the data set on N-TERT cells [3] (18-hour incubation), the “effect on UVB triggered cell death (PI positive cells)” value was “blocks UVB triggered cell death and IL-1beta release”. Moreover, the “effect on UVB triggered IL-1beta release” value with N-TERT cells [3] (IL1β ELISA of cell media) is “blocks UVB triggered cell death and IL-1beta release”. For the same molecule, the “effect on ribotoxin-triggered NLRP1-NT destabilization” value with NLRP1-NT is on record as “could be blocked”.
Turning to `CC1=C[C@H]2O[C@@H]3[C@H](O)C[C@](C)([C@@]2(CO)[C@H](O)C1=O)[C@]31CO1` [DON, deoxynivalenol], the “NLRP1^DR hyperphosphorylation” value with NLRP1^DR (NLRP1DR-GFP in N-TERT cells, PhosTag SDS-PAGE) is “also led to NLRP1^DR hyperphosphorylation”. Besides, in the data set with NLRP1^DR (NLRP1 KO N-TERT cells expressing GFP-tagged PYD-DR1), the “band shift (phosphorylation) of PYD-DR1-GFP” value is given as “band shift in PYD-DR1-GFP”. Besides, the “morphological hallmarks” value in data set [1] is “caused prominent inflammasome activation and pyroptosis”.
As for `CCCn1/c(=N/C(=O)c2cccc(C(N)=O)c2)[nH]c2ccccc21` [TAKinib], the “effect on ANS-induced IL1β secretion” value with N-TERT cells [2] (selective TAK1 inhibitor) is “does not have an effect on ANS-induced IL1β secretion”.
`CN(CC[C@H](N)CC(=O)N[C@H]1C=C[C@H](n2ccc(N)nc2=O)O[C@@H]1C(=O)O)C(=N)N` [blasticidin, Blasticidin]: the “morphological hallmarks” value in data set [1] is “none of the inhibitors that block the ribosome at the pre-elongation stages, including harringtonin, blasticidin and G418 caused any pyroptosis”.
Turning to `CC[C@H]1CN2CCc3cc(OC)c(OC)cc3[C@@H]2C[C@@H]1C[C@H]1NCCc2cc(OC)c(OC)cc21` [emetine], the “effect on ANS-induced IL1β secretion” value with N-TERT cells [2] (150 μM emetine) is recorded as “completely abrogated”.
As for `Cc1cn(-c2cc(NC(=O)c3ccc(C)c(Nc4nccc(-c5cccnc5)n4)c3)cc(C(F)(F)F)c2)cn1` [Nilotinib, 4-methyl-N-[3-(4-methylimidazol-1-yl)-5-(trifluoromethyl)phenyl]-3-[(4-pyridin-3-ylpyrimidin-2-yl)amino]benzamide], the “NLRP1 PYD-DR1 phosphorylation under inhibitor” value with NLRP1^DR is listed as “loss of NLRP1 PYD-DR1 phosphorylation”. Further, in the data set with 293T-ASC-GFP-NLRP1 (Nilotinib 0.1 μM), the “effect on ANS-dependent ASC-GFP speck formation” value is “abrogated all measures of ANS- and DT-dependent inflammasome activation”. The “effect on VbP-triggered pyroptosis” value in the data set on N-TERT cells [2] is given as “had no discernible effect on VbP-triggered pyroptosis”. For the same molecule, in the data set on N-TERT cells [2] (wild-type N-TERT cells), the “effect on ANS- and DT-dependent inflammasome activation (ASC oligomerization, IL1β secretion)” value was “abrogated all measures of ANS- and DT-dependent inflammasome activation”.
On to `CN[C@@H]1C[C@H]2O[C@@](C)([C@@H]1OC)n1c3ccccc3c3c4c(c5c6ccccc6n2c5c31)C(=O)NC4` [STS, Staurosporine], for which the “ASC-GFP speck formation, screen of cytotoxic chemicals” value with 293T-ASC-GFP-NLRP1 is reported as “failed to induce ASC-GFP specks”.

These data come from patent publication US20240148728A1, “NOVEL METHOD TO BLOCK IN[…] DEATH AND IL-1BETA SECRETION CAUSED BY […] UV I[…] GENETIC AND CHEMICAL INHIBITORS OF ZAKA AND THE NLRP1 INFLAMMASOME” (priority 2021, published 2024).
